Results as given in ChEMBL document CHEMBL5614417, “Discovery of AMPs from random peptides via deep learning-based model and biological activity validation” (Eur J Med Chem, 2024).
In brackets after ≈: the same amount, converted by molar mass. Activity calls are given as the source filed them. The rule behind the calls is not given here. Where a SMILES comes first, the peptide text is derived from it.

Assays:
Cell membrane [1] = assay: Induction of cell membrane damage in Staphylococcus aureus assessed as decrease in red/green fluorescence ratio at 2 times MIC by DiOC2(3) fluorescent probe based assay; format: cell membranes
Escherichia coli [2] = assay: Antibacterial activity against Escherichia coli ATCC 25922 incubated for 18 hrs in presence of 150 mM NaCl by visual inspection method; format: functional
Staphylococcus aureus [3] = assay: Antibacterial activity against Staphylococcus aureus ATCC 25923 incubated for 18 hrs in presence of 50 mM NaCl by visual inspection method; format: functional
Acinetobacter baumannii [4] = assay: Antibacterial activity against multidrug resistant Acinetobacter baumannii 1 incubated for 18 hrs by visual inspection method; format: functional
Escherichia coli [5] = assay: Antibacterial activity against ESBL Escherichia coli 5 incubated for 18 hrs by visual inspection method; format: functional
[6] = tested on: Staphylococcus epidermidis; assay: Antibacterial activity against Staphylococcus epidermidis ATCC 12228 incubated for 18 hrs by visual inspection method; format: functional
Cell membrane [7] = assay: Induction of cell membrane damage in Staphylococcus aureus at 4 times MIC incubated for 30 mins by PI staining based confocal laser scanning microscopic analysis; format: cell membranes
Staphylococcus aureus [8] = assay: Antibacterial activity against methicillin resistant Staphylococcus aureus 2 incubated for 18 hrs by visual inspection method; format: functional
Cell membrane [9] = assay: Induction of cell membrane damage in Escherichia coli assessed as change in morphology by measuring deformed membrane at 4 times MIC incubated for 5 hrs by SEM analysis; format: cell membranes
Cell membrane [10] = assay: Induction of cell membrane damage in Escherichia coli assessed as change in morphology by measuring roughened membrane at 4 times MIC incubated for 5 hrs by SEM analysis; format: cell membranes
Escherichia coli [11] = assay: Antibacterial activity against ESBL Escherichia coli 1 incubated for 18 hrs by visual inspection method; format: functional
Cell membrane [12] = assay: Induction of cell membrane damage in Staphylococcus aureus assessed as change in morphology by measuring numerous blebs covered membrane at 4 times MIC incubated for 5 hrs by SEM analysis; format: cell membranes
Staphylococcus aureus [13] = assay: Antibacterial activity against methicillin resistant Staphylococcus aureus 4 incubated for 18 hrs by visual inspection method; format: functional
Erythrocyte [14] = assay: Hemolytic activity in rat erythrocytes incubated for 1 hr; format: toxicity, cell-based
Escherichia coli [15] = assay: Antibacterial activity against ESBL Escherichia coli 3 incubated for 18 hrs by visual inspection method; format: functional
Acinetobacter baumannii [16] = assay: Antibacterial activity against multidrug resistant Acinetobacter baumannii 5 incubated for 18 hrs by visual inspection method; format: functional
Cell membrane [17] = assay: Induction of cell membrane damage in Escherichia coli at 4 times MIC incubated for 30 mins by PI staining based confocal laser scanning microscopic analysis; format: cell membranes
Cell membrane [18] = assay: Induction of cell membrane damage in Staphylococcus aureus assessed as change in morphology by measuring deformed membrane at 4 times MIC incubated for 5 hrs by SEM analysis; format: cell membranes
Acinetobacter baumannii [19] = assay: Antibacterial activity against multidrug resistant Acinetobacter baumannii 2 incubated for 18 hrs by visual inspection method; format: functional
Escherichia coli [20] = assay: Antibacterial activity against Escherichia coli ATCC 25922 incubated for 18 hrs in presence of 100 mM NaCl by visual inspection method; format: functional
Escherichia coli [21] = assay: Antibacterial activity against Escherichia coli ATCC 25922 incubated for 18 hrs in presence of 50 mM NaCl by visual inspection method; format: functional
Erythrocyte [22] = assay: Hemolytic activity in rat erythrocytes at 250 ug/ml incubated for 1 hr; format: toxicity, cell-based; conditions: dose 250 µg/ml
Staphylococcus aureus [23] = assay: Antibacterial activity against Staphylococcus aureus ATCC 25923 incubated for 18 hrs in presence of 100 mM NaCl by visual inspection method; format: functional
Acinetobacter baumannii [24] = assay: Antibacterial activity against multidrug resistant Acinetobacter baumannii 3 incubated for 18 hrs by visual inspection method; format: functional
Acinetobacter baumannii [25] = assay: Antibacterial activity against Acinetobacter baumannii ATCC 19606 incubated for 18 hrs by visual inspection method; format: functional
Cell membrane [26] = assay: Induction of cell membrane damage in Staphylococcus aureus assessed as decrease in red/green fluorescence ratio by DiOC2(3) fluorescent probe based assay; format: cell membranes
Staphylococcus aureus [27] = assay: Antibacterial activity against Staphylococcus aureus ATCC 25923 incubated for 18 hrs by visual inspection method; format: functional
Staphylococcus aureus [28] = assay: Antibacterial activity against methicillin resistant Staphylococcus aureus 1 incubated for 18 hrs by visual inspection method; format: functional
Escherichia coli [29] = assay: Antibacterial activity against ESBL Escherichia coli 2 incubated for 18 hrs by visual inspection method; format: functional
Staphylococcus aureus [30] = assay: Antibacterial activity against methicillin resistant Staphylococcus aureus 3 incubated for 18 hrs by visual inspection method; format: functional
Erythrocyte [31] = assay: Hemolytic activity in rat erythrocytes at 500 to 1000 ug/ml incubated for 1 hr; format: toxicity, cell-based; conditions: dose 500-1000 µg/ml
Staphylococcus aureus [32] = assay: Antibacterial activity against Staphylococcus aureus ATCC 25923 incubated for 18 hrs in presence of 150 mM NaCl by visual inspection method; format: functional
[33] = Hemolytic activity in rat erythrocytes at 1000 ug/ml incubated for 1 hr; format: toxicity, cell-based, Erythrocyte; conditions: at 1000 µg/mL, read-out: Activity
Klebsiella pneumoniae = assay: Antibacterial activity against Klebsiella pneumoniae ATCC 700603 incubated for 18 hrs by visual inspection method; format: functional
Cell membrane [34] = assay: Induction of inner membrane permeability in Escherichia coli ML-35 measured every 5 mins for 90 mins by ONPG dye based assay; format: cell membranes
Escherichia coli [35] = assay: Antibacterial activity against ESBL Escherichia coli 4 incubated for 18 hrs by visual inspection method; format: functional
Cell membrane [36] = assay: Induction of cell membrane damage in Escherichia coli assessed as change in morphology by measuring numerous blebs covered membrane at 4 times MIC incubated for 5 hrs by SEM analysis; format: cell membranes
Cell membrane [37] = assay: Disruption of outer membrane integrity in Escherichia coli assessed as increase in fluorescence intensity by measuring NPN uptake at 1 to 4 times MIC by fluorescence based analysis; format: cell membranes; conditions: TDE = time-dependent effect
Acinetobacter baumannii [38] = assay: Antibacterial activity against multidrug resistant Acinetobacter baumannii 4 incubated for 18 hrs by visual inspection method; format: functional
Cell membrane [39] = assay: Induction of cell membrane damage in Staphylococcus aureus assessed as change in morphology by measuring roughened membrane at 4 times MIC incubated for 5 hrs by SEM analysis; format: cell membranes
Bacillus subtilis = assay: Antibacterial activity against Bacillus subtilis ATCC 23857 incubated for 18 hrs by visual inspection method; format: functional
Cell membrane [40] = assay: Induction of inner membrane permeability in Escherichia coli ML-35 at 1 to 4 times MIC by ONPG dye based assay; format: cell membranes; conditions: TDE = time-dependent effect
Cell membrane [41] = assay: Disruption of outer membrane integrity in Escherichia coli assessed as increase in fluorescence intensity by measuring NPN uptake measured every min for 15 mins by fluorescence based analysis; format: cell membranes
Escherichia coli [42] = assay: Antibacterial activity against Escherichia coli ATCC 25922 incubated for 18 hrs by visual inspection method; format: functional
Staphylococcus aureus [43] = assay: Antibacterial activity against Staphylococcus aureus infected in BALB/c mouse at 10 mg/kg administered every 4 hrs for 3 doses and measured after 4 hrs post last dose; format: functional, organism-based; conditions: time 16.0 hrs

SMILES: CC[C@H](C)[C@H](NC(=O)[C@H](Cc1c[nH]c2ccccc12)NC(=O)CNC(=O)[C@H](CCC(N)=O)NC(=O)[C@@H](N)CCCNC(=N)N)C(=O)N[C@@H](Cc1c[nH]c2ccccc12)C(=O)N[C@@H](Cc1ccc(O)cc1)C(=O)NCC(=O)N[C@@H](Cc1ccccc1)C(=O)N[C@@H](Cc1ccccc1)C(=O)N[C@@H](Cc1c[nH]c2ccccc12)C(=O)N[C@@H](CCCCN)C(=O)N[C@@H](CCCCN)C(N)=O (H-RQGWIWYGFFWKK-NH2)
- Activity (Cell membrane [1]): Active
- MIC (Escherichia coli [2]): 30 µg/mL
- MIC (Staphylococcus aureus [3]): 7.5 µg/mL
- MIC (Acinetobacter baumannii [4]): 15 µg/mL (≈ 8.33 µM)
- MIC (Escherichia coli [5]): 30 µg/mL (≈ 16.7 µM)
- MIC [6]: 3.75 µg/mL (≈ 2.08 µM)
- Activity (Cell membrane [7]): Active
- MIC (Staphylococcus aureus [8]): 7.5 µg/mL (≈ 4.16 µM)
- Activity (Cell membrane [9]): Active
- Activity (Cell membrane [10]): Active
- MIC (Escherichia coli [11]): 30 µg/mL (≈ 16.7 µM)
- Activity (Cell membrane [12]): Active
- MIC (Staphylococcus aureus [13]): 7.5 µg/mL (≈ 4.16 µM)
- HC5 (Erythrocyte [14]): 560.73 µg/mL
- MIC (Escherichia coli [15]): 30 µg/mL (≈ 16.7 µM)
- MIC (Acinetobacter baumannii [16]): 15 µg/mL (≈ 8.33 µM)
- Activity (Cell membrane [17]): Active
- Activity (Cell membrane [18]): Active
- MIC (Acinetobacter baumannii [19]): 15 µg/mL (≈ 8.33 µM)
- MIC (Escherichia coli [20]): 30 µg/mL
- MIC (Escherichia coli [21]): 30 µg/mL
- Activity (Erythrocyte [22]): Non-Toxic
- MIC (Staphylococcus aureus [23]): 7.5 µg/mL
- MIC (Acinetobacter baumannii [24]): 15 µg/mL (≈ 8.33 µM)
- MIC (Acinetobacter baumannii [25]): 15 µg/mL (≈ 8.33 µM)
- Activity (Cell membrane [26]): Dose-Dependent Effect
- MIC (Staphylococcus aureus [27]): 7.5 µg/mL (≈ 4.16 µM)
- MIC (Staphylococcus aureus [28]): 7.5 µg/mL (≈ 4.16 µM)
- MIC (Escherichia coli [29]): 30 µg/mL (≈ 16.7 µM)
- MIC (Staphylococcus aureus [30]): 7.5 µg/mL (≈ 4.16 µM)
- Activity (Erythrocyte [31]): Toxic
- MIC (Staphylococcus aureus [32]): 7.5 µg/mL
- hemolysis at 1 h, 1000 ug/ml [33]: 7.47%
- MIC (Klebsiella pneumoniae): 60 µg/mL (≈ 33.3 µM)
- Activity (Cell membrane [34]): Dose-Dependent Effect
- MIC (Escherichia coli [35]): 30 µg/mL (≈ 16.7 µM)
- Activity (Cell membrane [36]): Active
- Activity (Cell membrane [37]): Tde
- MIC (Acinetobacter baumannii [38]): 15 µg/mL (≈ 8.33 µM)
- Activity (Cell membrane [39]): Active
- MIC (Bacillus subtilis): 7.5 µg/mL (≈ 4.16 µM)
- Activity (Cell membrane [40]): Tde
- Activity (Cell membrane [41]): Dose-Dependent Effect
- MIC (Escherichia coli [42]): 30 µg/mL (≈ 16.7 µM)

SMILES: CN[C@H](CC(C)C)C(=O)N[C@H]1C(=O)N[C@@H](CC(N)=O)C(=O)N[C@H]2C(=O)N[C@H]3C(=O)N[C@H](C(=O)N[C@H](C(=O)O)c4cc(O)cc(O)c4-c4cc3ccc4O)[C@H](O)c3ccc(c(Cl)c3)Oc3cc2cc(c3O[C@@H]2O[C@H](CO)[C@@H](O)[C@H](O)[C@H]2O[C@H]2C[C@](C)(N)[C@H](O)[C@H](C)O2)Oc2ccc(cc2Cl)[C@H]1O [VANCOMYCIN]
- MIC [6]: 0.94 µg/mL (≈ 0.649 µM)
- MIC (Staphylococcus aureus [8]): 0.94 µg/mL (≈ 0.649 µM)
- MIC (Staphylococcus aureus [13]): 0.94 µg/mL (≈ 0.649 µM)
- Activity (Staphylococcus aureus [43]): Active
- MIC (Staphylococcus aureus [27]): 0.94 µg/mL (≈ 0.649 µM)
- MIC (Staphylococcus aureus [28]): 0.94 µg/mL (≈ 0.649 µM)
- MIC (Staphylococcus aureus [30]): 0.94 µg/mL (≈ 0.649 µM)
- MIC (Bacillus subtilis): 0.94 µg/mL (≈ 0.649 µM)
